# Assay results from US20070010477A1, “Acyl homoserine lactones for inhibition of cell growth” (priority 2005, published 2007).
# What was measured:
# TS [1] = test: Western blot of TS protein down-regulation in H630 cells; assay type: cell-based, human; conditions: for down-regulation of TS protein (activity in words): 18-20 hours after addition
# Description: Conventional techniques were used to propagate and maintain the H630 and H630-1 cell lines (see, for example Dolnick, et al. (2003) Cancer Biology & Therapy, 2: 364-369; Stephanie, et al. (2001) In: Proceedings AACR, New Orleans, La., pp. 493). For the investigation of effects on TS expression, cells were extracted at 18-20 hours after the addition of AHLs. For Western blot analysis, proteins were extracted and Western blotting was performed by standard methods using blots blocked with 5% nonfat dried milk dissolved in 10 mM Tris-HCl, pH 8.0, 150 mM sodium chloride, 0.05% Tween-20. The blots were probed using either monoclonal (4D5E11) or polyclonal antibodies to TS and then probed for α-tubulin (monoclonal antibody B-5-1-2, Sigma Biochemicals) to confirm equivalent protein loading. The same blots were successively probed with anti-rTSβ or anti-TS, and finally anti-tubulin. After probing for each protein, the blots were stripped by incubation in 8 M guanidine HCl. Detection of rTS protein was performed with mouse monoclonal antibody D3, prepared against recombinant rTSβ protein. All Western blots were detected using the horseradish peroxidase-based West Pico Dura chemiluminescent substrate (Pierce) and horseradish peroxidase-coupled F(ab′)2 fragments (Jackson ImmunoResearch Laboratories, West Grove, Pa.) as secondary antibodies
# These AHLs were synthesized as described previously (Chhabra, et al., 1993, J. Antibiotics 46, 441-454). For studies with the H630-1 cell line, AHLs were either dissolved in RPMI 1640 (hydroxy-butanoyl-, butanoyl-, 3-(oxo)-hexanoyl-homoserine lactones) or in dimethyl sulfoxide (DMSO) (hexanoyl-homoserine lactones) and added to mid-log H630 cells in RPMI1640 containing 10 μM methionine and 1× ITS+ culture supplement (BD Bioscience) in place of serum at the indicated concentrations. […] After 18 hr, the medium was removed, the cells washed twice and protein extracted. The extracted proteins were separated on denaturing polyacrylamide gels and probed for rTS, TS and tubulin using specific antibodies.
# This embodiment describes the down regulation of TS by AHLs as a ftmction of time. H630 cells were incubated with medium containing 3-oxo-hexanoyl-L-HSL (3 mM) as described for Example 5. The extraction and analysis was also carried out as described in Example 5 at the indicated times after drug addition.
# (§1) A variety of AHLs with acyl-chains containing 4- to 12-carbons (C4-C12) and 3-hydroxy or 3-keto substituents were prepared as described in Example 1 and analyzed for their effect on TS protein expression by Western blotting. Although several of the shorter chain AHLs (C4-C6) can cause loss of TS, the required concentrations are in the mM range. […] The latter observation indicates 3-oxo-C12-HSL has effects on gene expression aside from the down-regulation of TS. In this regard, FIG. 8C provides a photographic representation of the effect of 23 μmol/L 3-oxo-C12-HSL on TS mRNA levels in H630 cells (20 hours of exposure) as evaluated by RT-PCR. […] Microarray analysis of H630 RNA was done using the Affymetrix (Santa Clara, Calif.) HGU133A GeneChip. Microarray data was analyzed using Genetraffic software (Stratagene, La Jolla, Calif.) with the Robust Multichip Analysis method (Lauren et al., (2003) IEEE Trans Nanobioscience; 2:163-70) for measuring probe intensity and scaling. Results for treated and untreated cells were analyzed for significant changes within each experiment (P<0.05) as well as for changes in pooled data from three separate experiments. RNA for RT-PCR or microarray analysis was prepared using an RNAeasy kit from Qiagen (Valencia, Calif.).
# TS mRNA = test: RT-PCR of TS mRNA levels in H630 cells; assay type: cell-based, human; conditions: 23 μmol/L, 20 hours of exposure
# Description: as §1, with “Calif.). […]” for “Calif.).”
# H630 cells [2] = test: Growth inhibition, cells counted 3 days after addition; assay type: cell-based, human
# tubulin = test: Western blot of tubulin in H630 cells; assay type: cell-based, human; conditions: FIG. 8B
# Description: Conventional techniques were used to propagate and maintain the H630 and H630-1 cell lines (see, for example Dolnick, et al. (2003) Cancer Biology & Therapy, 2: 364-369; Stephanie, et al. (2001) In: Proceedings AACR, New Orleans, La., pp. 493). For the investigation of effects on TS expression, cells were extracted at 18-20 hours after the addition of AHLs. For Western blot analysis, proteins were extracted and Western blotting was performed by standard methods using blots blocked with 5% nonfat dried milk dissolved in 10 mM Tris-HCl, pH 8.0, 150 mM sodium chloride, 0.05% Tween-20. […] All Western blots were detected using the horseradish peroxidase-based West Pico Dura chemiluminescent substrate (Pierce) and horseradish peroxidase-coupled F(ab′)2 fragments (Jackson ImmunoResearch Laboratories, West Grove, Pa.) as secondary antibodies
# A variety of AHLs with acyl-chains containing 4- to 12-carbons (C4-C12) and 3-hydroxy or 3-keto substituents were prepared as described in Example 1 and analyzed for their effect on TS protein expression by Western blotting. […] In this regard, FIG. 8C provides a photographic representation of the effect of 23 μmol/L 3-oxo-C12-HSL on TS mRNA levels in H630 cells (20 hours of exposure) as evaluated by RT-PCR. […]
# MCF-7 cells = test: Growth inhibition; assay type: cell-based, human; conditions: MCF-7 breast cancer cell line
# H630 cells [3] = test: Colony formation assay; conditions: for enhancement of activity by 3-oxo-C12-HSL: colony formation, 23 μM 3-oxo-C12-HSL
# TS [4] = target: T1, TS (Homo sapiens, UniProt P04818); test: TS modulation assay (luciferase mRNA containing TS binding elements) in H630 cells; assay type: cell-based; conditions: H630 cells treated with IC50 concentration
# T1 construct: effects of AHLs on TS and tubulin in H630 cells; endogenous in cells; host or cells: H630 human colon cancer cells
# T1 sequence (P04818 whole entry): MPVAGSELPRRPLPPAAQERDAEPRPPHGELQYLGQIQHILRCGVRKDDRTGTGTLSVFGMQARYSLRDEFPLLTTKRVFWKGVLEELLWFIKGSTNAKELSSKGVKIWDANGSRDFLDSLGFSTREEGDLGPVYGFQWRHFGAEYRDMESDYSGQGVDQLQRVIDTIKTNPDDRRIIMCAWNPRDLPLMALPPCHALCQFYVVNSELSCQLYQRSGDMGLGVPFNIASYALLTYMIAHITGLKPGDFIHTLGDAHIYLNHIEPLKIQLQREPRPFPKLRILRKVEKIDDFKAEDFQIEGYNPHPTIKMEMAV
# NCI-H460 = test: Growth inhibition; assay type: cell-based, human; conditions: NCI-H460 lung cancer cell line
# H630-1 cells [5] = test: Growth inhibition, cells counted 3 days after addition; assay type: cell-based, human
# H630 = test: Sulforhodamine-B growth inhibition assay, 5 days; assay type: cell-based, human; conditions: H630 cells, SRB staining
# Description: (§2) For growth inhibition assays described in this Example, H630, H630-1 and PC-3 (prostate cancer cells) cells were growth in the presence of HSL analog for 5 days. At the end of day 5, cells were fixed and stained with Sulforhodamine-B (SRB), a protein-staining dye. Excess SRB was removed leaving only dye bound to proteins from cells. Protein-bound SRB was then dissolved in base and quantified by spectrophotometric absorbance. In this assay, the amount of SRB bound to protein correlates with the number of cells present, allowing for the analysis of growth of treated versus untreated samples. The HSL analogs are administered at 10 concentrations, spanning a 5 log range.
# (§3) The data points in the graphs of FIGS. 13A-13C represent % control growth at a given HSL analog concentration. IC50 values represent the concentration of HSL analog at which growth of the treated cells is inhibited by 50%. The structure of the tested compounds, designated by number, are as set forth in FIG. 13 from which it can be sent that the phenyl-HSL analogs tested range from C5 (compound 12) to C14 (compound 25). […] This effect decreases as the chain length reaches C14, as indicated by an increase in the IC50 values. […] Specifically, the C10 phenyl analog (compound 20) is equally as active as the 3-oxo-C12 HSL used as a positive control, despite having two fewer carbons in the alkyl chain.
# [6] = test system: PC-3 (prostate cancer cells); test: Sulforhodamine-B growth inhibition assay, 5 days; assay type: cell-based, human; conditions: PC-3 cells, SRB staining
# Description: as §2, §3
# H630-1 = test: Sulforhodamine-B growth inhibition assay, 5 days; assay type: cell-based, human; conditions: H630-1 cells, SRB staining
# Description: as §2, §3
# H630-1 cells [7] = test: Colony formation assay; assay type: cell-based, human; conditions: for enhancement of activity by 3-oxo-C12-HSL: colony formation, 8 μM 3-oxo-C12-HSL
compound,measurement,setting,value
"CCCCCC(=O)NC1CCOC1=O (racemic) [C6-HSL racemic mix, hexanoyl-homoserine lactone]",down-regulation of TS protein (activity in words),TS [1]; Western blot,less active
"CCCCCC(=O)N[C@H]1CCOC1=O (single isomer, unassigned) [(L)-isomer of C6-HSL, N-hexanoyl (L-)-homoserine lactone]",down-regulation of TS protein (activity in words),TS [1]; Western blot,active
"CCCC(=O)CC(=O)OCC [3-(oxo)-ethylhexanoate, reference compound]",down-regulation of TS protein (activity in words),TS [1]; Western blot,inactive
"CCCCCCCCCC(=O)CC(=O)N[C@H]1CCOC1=O [3-oxo-C12-HSL, 3-oxo-C12 homoserine lactone]",TS mRNA levels,TS mRNA,unaffected
same,concentration needed to reduce the amount of TS,TS [1]; FIG. 8B,1 to 10 µM
same,lowest concentration causing down-regulation of TS,"TS [1]; Western blot, FIG. 8B",10 µM
same,IC50,H630 cells [2]; 3 days,23 µM
same,"growth inhibition, relative activity of stereoisomer",H630 cells [2]; FIG. 9B,more active than the racemic mixture
same,effect on tubulin with increasing concentrations,tubulin,appears to decrease
same,IC50,MCF-7 cells,16 µM
same,IC50,"H630 cells [3]; read-out: IC50 for inhibition of cell growth in a clonogenic assay, H630 cells, FIG. 9B solid circles",~10 µM
same,TS modulatory activity (luminescence),TS [4],no detectable TS modulatory activity
same,IC50,NCI-H460,35 µM
same,IC50,H630-1 cells [5],8 µM
same,IC50,H630,35 µM
same,IC50,[6],10 µM
same,IC50,H630-1,12 µM
CCCCCC(=O)NC1CCOC1=O (stereo not shown) [C6-(D)—HSL],down-regulation of TS protein (activity in words),TS [1]; Western blot,inactive
"CCCC(=O)CC(=O)N[C@H]1CCOC1=O [Compound 3-oxo-C6-HSL, 3-oxo-N-hexanoyl-(L-)homoserine lactone]",time for which the TS reduction is maintained,TS [1]; 3 mM,approximately 24 hours
same,reduction of TS levels,"TS [1]; 3 mM, after 16 hours",approximately 50%
same,TS modulatory activity (luminescence),TS [4],potent modulator of TS
CCCCCCCCCCCC(=O)N[C@H]1CCOC1=O [Compound C12-HSL],down-regulation of TS protein,TS [1]; at concentrations as high as 100 μM,inactive
same,IC50,"H630 cells [2]; FIG. 9B, read-out: IC50 growth inhibition",1000 µM
"O=c1[nH]cc(F)c(=O)[nH]1 [FU, 5-fluorouracil]",enhancement of activity by 3-oxo-C12-HSL,H630-1 cells [7],No enhancement
same,IC50,"H630 cells [3]; Homo sapiens, NCI-H630, 336 h, read-out: apparent IC50 of FU, FU alone",1 µM
"O=c1[nH]c(=O)n([C@H]2C[C@H](O)[C@@H](CO)O2)cc1F [FUdR, fluorodeoxyuridine]",enhancement of activity by 3-oxo-C12-HSL,H630 cells [3]; H630 cells,enhancement
"O=c1[nH]c(=O)n([C@@H]2O[C@H](CO)[C@@H](O)[C@H]2O)cc1F [FUrd, 5-fluorouridine]",enhancement of activity by 3-oxo-C12-HSL,H630 cells [3]; H630 cells,no enhancement
COc1cccc2c1C(=O)c1c(O)c3c(c(O)c1C2=O)C[C@@](O)(C(=O)CO)C[C@@H]3O[C@H]1C[C@H](N)[C@H](O)[C@H](C)O1 [adriamycin],enhancement of activity by 3-oxo-C12-HSL,H630 cells [3]; H630 cells,not
CN(Cc1cnc2nc(N)nc(N)c2n1)c1ccc(C(=O)N[C@@H](CCC(=O)O)C(=O)O)cc1 [methotrexate],enhancement of activity by 3-oxo-C12-HSL,H630 cells [3]; H630 cells,not
CC(=O)O[C@H]1C(=O)[C@@]2(C)[C@H]([C@H](OC(=O)c3ccccc3)[C@]3(O)C[C@H](OC(=O)[C@H](O)[C@@H](NC(=O)c4ccccc4)c4ccccc4)C(C)=C1C3(C)C)[C@]1(OC(C)=O)CO[C@@H]1C[C@@H]2O [taxol],IC50,"H630-1 cells [7]; Homo sapiens, FIG. 11E",0.02 µM
same,enhancement of activity by 3-oxo-C12-HSL,H630-1 cells [7],some enhancement
same,enhancement of activity by 3-oxo-C12-HSL,H630 cells [3]; H630 cells,some enhancement
same,IC50,"H630 cells [3]; Homo sapiens, NCI-H630, read-out: IC50 colony formation",0.006 µM
Cc1nc2ccc(CN(C)c3ccc(C(=O)N[C@@H](CCC(=O)O)C(=O)O)s3)cc2c(=O)[nH]1 [tomudex],enhancement of activity by 3-oxo-C12-HSL,H630 cells [3]; H630 cells,enhancement
